Source: patent US20230183293A1, “METHODS OF TREATING OR PREVENTING CORONAVIRUS INFECTION” (priority 2021, published 2023)
Like-named read-outs stand apart in the source and are kept apart here. Marks after values point to notes of the source that are not given here.

How the values were obtained:
[1] = test system: SARS-CoV-2 virions; conditions: 2 h at 37° C., below the limit of detection
[2] = test system: SARS-CoV-2; experiment: CPE reduction assay in Vero E6 cells with pharmaceutical formulations (Example 8); assay type: cell-based; conditions: for inhibitory / antiviral effect in CPE reduction assay: FIGS. 7D-7E; for EC50: Severe acute respiratory syndrome coronavirus 2, Vero C1008, 72 h, Vero E6, 3 days, read-out: EC50, inhibition of virus-induced cell death
[3] = test system: SARS-CoV-2; experiment: CPE reduction assay in Vero E6 cells with pharmaceutical formulations dissolved in DMSO (Example 6); assay type: cell-based; conditions: Severe acute respiratory syndrome coronavirus 2, Vero C1008, 72 h, read-out: EC50, inhibition of virus-induced cell death
[4] = test system: SARS-CoV-2; experiment: microbe, parasite or virus in culture; assay type: cell-based
[5] = Phase 2b study in de novo kidney transplant recipients (Example 3); assay type: in vivo, human
Method: De novo kidney transplant recipients were enrolled into a 6 month, Phase 2b, multi-center, randomized, open-label study. […] In addition, all subjects received induction immunosuppression with intravenous daclizumab or basiliximab (dosed per product labeling) and received concomitant treatment during the study with MMF and corticosteroids. […] Adverse reactions were recorded and renal graft rejection was assessed based on Banff classification. At 3-month and 6-month time points, adverse reactions were analyzed. Graft survival and patient survival were also recorded at the 6-month time point.

[6] = test system: SARS-CoV-2; experiment: microbe, parasite or virus in culture; assay type: cell-based; conditions: for EC50: Severe acute respiratory syndrome coronavirus 2, Vero C1008, FIG. 1C, Vero E6 CPE reduction, read-out: EC50 inhibition of SARS-CoV-2
[7] = Binding to plastic labware (coated or uncoated 96-well plates), remaining concentration by LC-MS/MS (Example 12); assay type: physicochemical
Method: Plastic labware was coated with three different coating agents: 100 mg/ml bovine serum albumin in PBS (BSA; Sigma), 1% polyethylene glycol 3350 in MilliQ water (PEG-3350; Sigma) and 0.2% polysorbate 40 in MilliQ water (Tween40; Fluka). In addition, the plastic materials with VCS by treating them with a 500 mM VCS solution in DMSO (Sigma). Labware, including all tubes, tips and culture plastics, was filled with blocking solution and incubated for 2 h at room temperature with rocking to homogenously coat the surfaces. After rinsing twice with MilliQ water, the items were left to dry at room temperature until further use in experiments. Solutions of 0.2 and 2 μM of VCS were prepared in EMEM-2% FCS and 100 μl of each VCS solution was incubated in coated 96-well plates. After a 2 h incubation at 37° C. the remaining VCS concentration was measured by validated LC-MS/MS.

[8] = test system: Vero E6 cells; conditions: for concentration after which compound-related cytotoxicity was observed: Vero E6, 3 days; for concentrations without toxicity to uninfected cells: FIG. 1B
[9] = test system: SARS-CoV-2; conditions: HuH7.5, Calu-3 and Vero cells; Dittmar et al.; cited from earlier work
[10] = test system: SARS-CoV-2; assay type: cell-based
[11] = test system: Calu-3 cells; conditions: plastic, Calu-3, FIG. 6D
[12] = test system: SARS-CoV-2; conditions: prednisone + voclosporin, expected
[13] = test system: Vero E6 cells; experiment: Cytotoxicity in mock-infected Vero E6 cells, pure powder stocks (Example 11); assay type: cell-based, African green monkey; conditions: solution from pure powder
Method: CPE reductions assays in Vero E6 cells were performed, generally as described above, except that pre-incubation of cells with the tested compounds lasted 30 minutes. Plates were incubated for three days at 37° C. and cell viability was determined using a colorimetric assay, measuring the absorption at 495 nm. The EC50 and CC50 of each compound was determined and analysis of the resultant data using non-linear regression. For each compound, at least two independent experiments (each in quadruplicate) were completed.
CPE reduction assays were performed as described above, using high purity powders of immunosuppressive drugs solubilized in DMSO. Test stock solutions were prepared from pure powders of each compound. In the case of Neoral (CsA microemulsion), CsA powder, the most commonly used CsA derivative in KTR treatment, was evaluated.

[14] = test system: calcineurin; conditions: in vitro and in vivo; Kuglstatter et al.; cited from earlier work
[15] = test system: SARS-CoV-2; experiment: SARS-CoV-2 viral load reduction assay in Vero E6 cells, plaque assay and NSP4 staining (Example 2); assay type: cell-based
[16] = in vitro; conditions: African green monkey
[17] = test system: norovirus; conditions: compared with CsA; cited from earlier work
[18] = assay type: physicochemical
[19] = test system: Calu-3 cells; conditions: with cells, glass
[20] = VCS concentration after incubation in glass without cells, LC-MS/MS; assay type: physicochemical; conditions: for Conc: 3.2 μM supplied solution, without cells, glass
[21] = Vero E6, MOI 0.015, three days, pharmaceutical formulation in DMSO, estimated concentrations
[22] = plastic labware, 0.8 μM stock solution, 2 h

## CCO [50% ethanol, ethanol]
[1]
  amount of infectious SARS-CoV-2 remaining: < 100 PFU/ml

## CO[C@H]1C[C@@H]2CC[C@@H](C)[C@@](O)(O2)C(=O)C(=O)N2CCCC[C@H]2C(=O)O[C@H]([C@H](C)C[C@@H]2CC[C@@H](OCCO)[C@H](OC)C2)CC(=O)[C@H](C)/C=C(\C)[C@@H](O)[C@@H](OC)C(=O)[C@H](C)C[C@H](C)/C=C/C=C/C=C/1C [EVL, everolimus]
[2]
  inhibitory / antiviral effect in CPE reduction assay: did not show an inhibitory effect

## COc1c(C)c2c(c(O)c1C/C=C(\C)CCC(=O)OCCN1CCOCC1)C(=O)OC2 [MMF, mycophenolate mofetil]
[2]
  inhibitory / antiviral effect in CPE reduction assay: apparent antiviral effect

## COc1c(C)c2c(c(O)c1C/C=C(\C)CCC(=O)O)C(=O)OC2 [mycophenolate, mycophenolic acid]
[3]; [21]
  EC50: 3.1 µM

## C=CC[C@@H]1/C=C(\C)C[C@H](C)C[C@H](OC)[C@H]2O[C@@](O)(C(=O)C(=O)N3CCCC[C@H]3C(=O)O[C@H](/C(C)=C/[C@@H]3CC[C@@H](O)[C@H](OC)C3)[C@H](C)[C@@H](O)CC1=O)[C@H](C)C[C@@H]2OC [tacrolimus, reference compound]
[4]; Severe acute respiratory syndrome coronavirus 2, Vero C1008, solutions prepared from pure powder, read-out: EC50, inhibition of SARS-CoV-2 in Vero E6 cells
  EC50: ~15 µM
[5]; standard dose 0.05 mg/kg BID, months 0-3
  blood trough level: 7 to 20 ng/mL
[5]; standard dose 0.05 mg/kg BID, months 0-6 as printed
  blood trough level: 5 to 15 ng/mL
[5]; standard dose group
  Nankivell eGFR: 69 mL/min
[5]; standard dose, 6 month
  Graft survival: 97.7%
  NODAT (new onset of diabetes after transplant) incidence: 16.4%
  Patient survival: 97.7%
[5]; standard dose, 6 month, listed as Tacrolimus
  NODAT (new onset of diabetes after transplant) incidence: 16.4%
[5]; standard dose, N = 86, 6 month post-transplantation
  Central BPAR (biopsy proven acute rejection), patients (incidence): 5 (5.8%)
[6]
  EC50: ~25 µM
[6]; dosages up to 25 μM
  protection of infected cells from virus-induced cytopathic effects: did not protect
[3]; [21]
  EC50: 12 µM
[2]
  EC50: 10 ± 1 µM
[7]; plastic labware, 0.8 μM stock solution, 0 h
  Conc: 850 nM
[7]; [22]
  % rem: 76%
  Conc: 650 nM
[7]; plastic labware, 2 h
  loss by binding to plastic: 24%
[8]
  concentration after which compound-related cytotoxicity was observed: above 25 μM
[8]; listed as Tacrolimus
  concentration after which compound-related cytotoxicity was observed: > 25000 nM
[9]
  activity on SARS-CoV-2 replication in a previous report: no activity
[10]; 3.2 μM, glass labware, Calu-3, 24 h p.i., FIG. 6A
  reduction in SARS-CoV-2 infectious progeny titers: ~0.5 log
[11]
  cytotoxicity: did not display much cytotoxicity

## C=C/C=C/C[C@@H](C)[C@@H](O)[C@H]1C(=O)N[C@@H](CC)C(=O)N(C)CC(=O)N(C)[C@@H](CC(C)C)C(=O)N[C@@H](C(C)C)C(=O)N(C)[C@@H](CC(C)C)C(=O)N[C@@H](C)C(=O)N[C@H](C)C(=O)N(C)[C@@H](CC(C)C)C(=O)N(C)[C@@H](CC(C)C)C(=O)N(C)[C@@H](C(C)C)C(=O)N1C [voclosporin]
[4]
  protection of SARS-CoV-2 infected cells compared with the pharmaceutical formulation: did not confer the same level of protection
[5]; high dose, 6 month
  NODAT (new onset of diabetes after transplant) incidence: 17.7%
[5]; high dose, 6 month, listed as Voclosporin
  NODAT (new onset of diabetes after transplant) incidence: 17.7%
[5]; high dose, N = 87, 6 month post-transplantation
  Central BPAR (biopsy proven acute rejection), patients (incidence): 2 (2.3%)
[5]; high-dose 0.8 mg/kg BID, months 0-3
  blood trough level: 60 to 85 ng/mL
[5]; high-dose 0.8 mg/kg BID, months 3-6
  blood trough level: 31 to 40 ng/mL
[5]; low dose, 6 month
  NODAT (new onset of diabetes after transplant) incidence: 1.6%
[5]; low dose, 6 month, listed as Voclosporin
  NODAT (new onset of diabetes after transplant) incidence: 1.6%
[5]; low dose, N = 84, 6 month post-transplantation
  Central BPAR (biopsy proven acute rejection), patients (incidence): 9 (10.7%)
[5]; low-dose 0.4 mg/kg BID, months 0-3
  blood trough level: 20 to 30 ng/mL
[5]; low-dose 0.4 mg/kg BID, months 3-6
  blood trough level: 11 to 20 ng/mL
[5]; mid dose, 6 month
  NODAT (new onset of diabetes after transplant) incidence: 5.7%
[5]; mid dose, 6 month, listed as Voclosporin
  NODAT (new onset of diabetes after transplant) incidence: 5.7%
[5]; mid dose, N = 77, 6 month post-transplantation
  Central BPAR (biopsy proven acute rejection), patients (incidence): 7 (9.1%)
[5]; mid-dose 0.6 mg/kg BID, months 0-3
  blood trough level: 35 to 50 ng/mL
[6]
  EC50: ~0.4 µM
[6]; Vero E6, 3 days
  concentration preserving viability of infected cells at level of mock-infected/uninfected cells: 0.8 µM
[12]; 6 capsules of 7.9 mg BID
  SARS-CoV-2 viral load and CPEs compared to the tacrolimus group: more efficacious reduction in viral load, and less severe CPEs
[12]
  graft rejections, diabetes and adverse effects compared to the tacrolimus group: comparable or lower incidences of graft rejections, diabetes and adverse effects
[13]
  cytotoxicity in mock-infected cells compared with the pharmaceutical formulation: less cytotoxicity
[3]
  EC50: 0.27 µM
[2]
  times lower EC50 compared to the other compounds tested: 18-45 times
  EC50: 0.22 ± 0.01 µM
[7]; 100 mg/ml BSA solution coating, 2 μM VCS, 0 h
  Conc: 550 ± 210 nM
[7]; 100 mg/ml BSA solution coating, 2 μM VCS, 2 h
  Conc: 100 ± 40 nM
[7]; 0.2% Tween-40 solution coating, 2 μM VCS, 0 h
  Conc: 560 ± 350 nM
[7]; 0.2% Tween-40 solution coating, 2 μM VCS, 2 h
  Conc: 90 ± 40 nM
[7]; 1% PEG-3350 solution coating, 2 μM VCS, 0 h
  Conc: 510 ± 160 nM
[7]; 1% PEG-3350 solution coating, 2 μM VCS, 2 h
  Conc: 90 ± 20 nM
[7]; Uncoated plastic, 2 μM VCS, 0 h
  Conc: 560 ± 250 nM
[7]; Uncoated plastic, 2 μM VCS, 2 h
  Conc: 130 ± 70 nM
[7]; t=0
  original stock concentration recovered: ~27%
[8]; batch 4
  concentrations without toxicity to uninfected cells: up to 10 μM
[8]; unit not given
  concentrations without toxicity to uninfected cells: under 2
[10]
  reduction in SARS-CoV-2 infectious progeny titers: more than 1.5 log
[14]
  increase of binding affinity to calcineurin compared to CsA: up to five-fold
[15]; Vero E6, FIG. 2A, unit not given
  concentration above which viral titer was reduced to the limit of detection: above 1.00
[15]; Vero E6, FIG. 2C
  amount of SARS-CoV-2 infected cells, fluorescent staining of viral NSP4: reduced the amount of SARS-CoV-2 infected cells in a dose-dependent manner
[16]
  CC50: ~4 µM
[17]
  inhibition of norovirus replication: inhibit norovirus replication in a CypA-dependent manner and more effectively than CsA
[18]; after 24 h treatment with 25 μM VCS, standard plastic labware
  detected concentration in the medium of infected cells: 0.68 µM
[18]; considering a […]% reduction due to cellular binding or uptake
  VCS lost due to plastic binding: 90%
[18]; plastic labware
  bioavailable amount of what was added initially when using plastic: ~10%
[19]; 0.2 μM supplied solution, 0 h
  Conc: 0.33 µM
[19]; 0.2 μM supplied solution, 24 h, below detection limit
  Conc: <0.07* μM
[19]; 0.4 μM supplied solution, 0 h
  Conc: 0.45 µM
[19]; 0.4 μM supplied solution, 24 h
  Conc: 0.10 µM
[19]; 0.8 μM supplied solution, 0 h
  Conc: 0.99 µM
[19]; 0.8 μM supplied solution, 24 h
  Conc: 0.15 µM
[19]; 1.6 μM supplied solution, 0 h
  Conc: 1.77 µM
[19]; 1.6 μM supplied solution, 24 h
  Conc: 0.35 µM
[19]; 3.2 μM supplied solution, 0 h
  Conc: 2.91 µM
[19]; 3.2 μM supplied solution, 24 h
  Conc: 0.82 µM
[20]; 0 h
  Conc: 2910 nM
[20]; 24 h
  Conc: 2790 nM
[20]; 24 h at 37° C. in glass without cells
  loss of compound from solution: No significant loss
[11]
  cytotoxicity: did not
